Reference: patent publication US20220364065A1, “COMPOSITION FOR REMOVING PLURIPOTENT STEM CELLS AND METHOD OF REMOVING PLURIPOTENT STEM CELLS” (NATIONAL UNIVERSITY CORPORATION HOKKAIDO UNIVERSITY, priority 2018, published 2022)
Peptide text beside a SMILES is read from it. * marks the point of attachment. Cbz = O=C(OCc1ccccc1)*; CH2F = FC*

How the values were obtained:
[1] = tested on: mouse ES cells; assay: Immunostaining of pluripotent stem cell markers (Sox2, Nanog, Oct4), ES cells; type: cell-based; conditions: ES cells, BRQ 10 μM
Procedure: (§1) The cells were fixed and immunostained as described in Kondo et al., Genes Dev. […] For the culture of ES cells and iPS cells, gelatin-coated ones were used.
(§2) For immunostaining, the cells were first washed once with PBS, then fixed by adding 4% paraformaldehyde and incubating for 10 minutes at room temperature. The cells were replaced with PBS containing 0.3% Triton X100 and incubated for 5 minutes at room temperature, then replaced with PBS containing 0.3% Triton X100 and 10% FCS (blocking solution) and incubated for 30 minutes at room temperature. The solution was replaced with primary antibody solution diluted in blocking solution and incubated for 2 hours at room temperature. After washing three times with PBS, secondary antibody and DAPI solution diluted with blocking solution were added and incubated at room temperature for 2 hours. […] Note that the cell nuclei were visualized by contrast staining with DAPI solution (1 μg/mL, manufactured by Dojindo, product code: D523). In addition, fluorescence images were acquired with an Axiolmager M1 microscope (manufactured by Carl Zeiss).
(§3) LMB is a specific inhibitor of CRM1, also known as Exportin 1.

[2] = tested on: mouse iPS cells; assay: Immunostaining of pluripotent stem cell markers (Sox2, Nanog, Oct4), iPS cells; type: cell-based; conditions: iPS cells, BRQ 10 μM
Procedure: as §1, §2, §3

[3] = tested on: mouse iPS cells; assay: Nucleoside neutralization experiment (MTT), iPS cells; conditions: 10 μM BRQ, 3 days, added up to 500 μM
Source text: (§4) Pyrimidine synthesis is regulated by the de novo (de novo synthesis) pathway and salvage pathway. DHODH is a key factor in de novo synthesis, catalyzing the fourth chemical reaction in the synthetic pathway. In view of this, the present inventor investigated whether the effect of eliminating pluripotent stem cells by DHODH inhibitors could be eliminated by adding nucleosides such as uridine, which is the starting material of the salvage pathway.
(§5) In addition, UMP, a product of the pyrimidine synthesis pathway, is converted to UDP and UTP. Furthermore, uridine diphosphate-N-acetylglucosamine (UDP-GlcNac) is also biosynthesized using UTP as a substrate. […] Therefore, the present inventor verified whether the cytotoxic activity of DHODH inhibitors on pluripotent stem cells could also be neutralized by the products from these UMPs.

[4] = tested on: mouse ES cells; assay: Nucleoside neutralization experiment (MTT), ES cells; conditions: 10 μM BRQ, 3 days, added up to 500 μM
Source text: as §4, §5

CC(NC(=O)C(NC(=O)OCc1ccccc1)C(C)C)C(=O)NC(CC(=O)O)C(=O)CF (stereo not drawn) [Z-VAD] (Cbz-Val-Ala-Asp-CH2F; configuration not given here)
effect on BRQ-dependent cell death ([1]; ZVAD 100 nM): slight delay | effect on BRQ-dependent cell death ([2]; ZVAD 100 nM): slight delay

CCC(=C/[C@H](C)C/C=C/C(C)=C/[C@@H](C)C(=O)[C@@H](C)[C@H](O)[C@@H](C)C/C(C)=C/C(=O)O)/C=C/[C@@H]1OC(=O)C=C[C@@H]1C [LMB, leptomycin B]
nuclear export of Nanog and Oct4 in cells treated with BRQ ([1]; 2 days, LMB 0.15 nM): completely suppressed | nuclear export of Nanog and Oct4 in cells treated with BRQ ([2]; 2 days, LMB 0.15 nM): completely suppressed

uridine diphosphate-N-acetylglucosamine [UDP-GlcNac]
neutralizing activity against the cytotoxic activity of BRQ [3]: neutralized | neutralizing activity against the cytotoxic activity of BRQ [4]: neutralized
